Results: PubChem BioAssay (NCI)
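Briefly, cells in 96-well plates were exposed to five compound concentrations for 48 h, and endpoints were estimated by linear interpolation. TGI is the concentration that stops growth completely.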

Experiments:
Assay in all cases: inhibition of tumour cell growth, NCI panel, 48 h
[1] = system: TK-10 renal
[2] = system: COLO 205 colon
[3] = system: A549 NSCLC
[4] = system: SW-620 colon
[5] = system: HT29 colon
[6] = system: SK-OV-3 ovarian
[7] = system: MDA-N
[8] = system: SNB-19 CNS
[9] = system: MDA-MB-231 breast
[10] = system: HOP-62 NSCLC
[11] = system: SK-MEL-28 melanoma
[12] = system: NCI-H23 lung
[13] = system: MOLT-4 leukemia
[14] = system: M14 melanoma
[15] = system: CCRF-CEM leukemia
[16] = system: NCI-H460 lung
[17] = system: HS 578T breast
[18] = system: SK-MEL-2 melanoma
[19] = system: OVCAR-8 ovarian
[20] = system: HOP-92 NSCLC
[21] = system: CAKI-1 renal
[22] = system: OVCAR-5 ovarian
[23] = system: EKVX NSCLC
[24] = system: UACC-62 melanoma
[25] = system: MALME-3M melanoma
[26] = system: SF-295 CNS
[27] = system: KM12 colon
[28] = system: UO-31 renal
[29] = system: SN12C renal
[30] = system: MCF7 breast
[31] = system: SF-268 CNS
[32] = system: U251 CNS
[33] = system: HCT-15 colon
[34] = system: BT-549 breast
[35] = system: UACC-257 melanoma
[36] = system: 786-0 renal
[37] = system: MDA-MB-435
[38] = system: OVCAR-4 ovarian
[39] = system: HL-60(TB) leukemia
[40] = system: DU-145 prostate
[41] = system: NCI-H226 lung
[42] = system: SR leukemia
[43] = system: SNB-75 CNS
[44] = system: HCT-116 colon
[45] = system: K-562 leukemia
[46] = system: OVCAR-3 ovarian
[47] = system: ACHN renal
[48] = system: NCI/ADR-RES ovarian
[49] = system: SF-539 CNS
[50] = system: RPMI-8226 leukemia
[51] = system: IGROV1 ovarian
[52] = system: NCI-H522 lung
[53] = system: LOX IMVI melanoma
[54] = system: PC-3 prostate
[55] = system: A498 renal
[56] = system: RXF 393 renal
[57] = system: T-47D breast
[58] = system: HCC-2998 colon
[59] = system: SK-MEL-5 melanoma

SMILES: O=C1/C(=C/c2cccc(Br)c2)Cc2ccccc21
- TGI [1]: > 100 µM
- TGI [2]: 89.7 µM
- TGI [3]: > 100 µM
- TGI [4]: > 100 µM
- TGI [5]: > 100 µM
- TGI [6]: > 100 µM
- TGI [7]: > 100 µM
- TGI [8]: > 100 µM
- TGI [9]: > 100 µM
- TGI [10]: > 100 µM
- TGI [11]: > 100 µM
- TGI [12]: > 100 µM
- TGI [13]: > 100 µM
- TGI [14]: > 100 µM
- TGI [15]: > 100 µM
- TGI [16]: > 100 µM
- TGI [17]: > 100 µM
- TGI [18]: > 100 µM
- TGI [19]: > 100 µM
- TGI [20]: > 100 µM
- TGI [21]: > 100 µM
- TGI [22]: > 100 µM
- TGI [23]: > 100 µM
- TGI [24]: > 100 µM
- TGI [25]: > 100 µM
- TGI [26]: > 100 µM
- TGI [27]: > 100 µM
- TGI [28]: > 100 µM
- TGI [29]: > 100 µM
- TGI [30]: > 100 µM
- TGI [31]: > 100 µM
- TGI [32]: > 100 µM
- TGI [33]: > 100 µM
- TGI [34]: > 100 µM
- TGI [35]: > 100 µM
- TGI [36]: > 100 µM
- TGI [37]: > 100 µM
- TGI [38]: > 100 µM
- TGI [39]: > 100 µM
- TGI [40]: > 100 µM
- TGI [41]: > 100 µM
- TGI [42]: > 100 µM
- TGI [43]: > 100 µM
- TGI [44]: > 100 µM
- TGI [45]: > 100 µM
- TGI [46]: > 100 µM
- TGI [47]: > 100 µM
- TGI [48]: > 100 µM
- TGI [49]: > 100 µM
- TGI [50]: > 100 µM
- TGI [51]: > 100 µM
- TGI [52]: > 100 µM
- TGI [53]: > 100 µM
- TGI [54]: > 100 µM

SMILES: CCCCCCCCCCCCC/C=C/[C@@H](O)[C@H](COC1OC(CO)C(OC2OC(CO)C(O)C(OC3(C(=O)O)CC(O)C(NC(C)=O)C(C(O)C(O)CO)O3)C2O)C(O)C1O)N=[N+]=[N-] (some centres undefined)
- TGI [1]: > 100 µM
- TGI [2]: 33.9 µM
- TGI [3]: > 100 µM
- TGI [55]: > 100 µM
- TGI [4]: 61.7 µM
- TGI [5]: 58.5 µM
- TGI [6]: 78.8 µM
- TGI [7]: > 100 µM
- TGI [8]: 93.7 µM
- TGI [9]: > 100 µM
- TGI [10]: 46.2 µM
- TGI [11]: 60.5 µM
- TGI [12]: > 100 µM
- TGI [13]: 43.4 µM
- TGI [14]: 34.3 µM
- TGI [15]: 43.4 µM
- TGI [16]: > 100 µM
- TGI [17]: > 100 µM
- TGI [18]: 49.7 µM
- TGI [19]: 44.9 µM
- TGI [20]: > 100 µM
- TGI [21]: > 100 µM
- TGI [22]: > 100 µM
- TGI [23]: > 100 µM
- TGI [24]: 37.1 µM
- TGI [25]: 55.5 µM
- TGI [26]: 88 µM
- TGI [56]: 48.8 µM
- TGI [27]: 34.1 µM
- TGI [28]: 44.1 µM
- TGI [29]: > 100 µM
- TGI [30]: > 100 µM
- TGI [31]: 41.3 µM
- TGI [32]: 36.1 µM
- TGI [33]: > 100 µM
- TGI [35]: > 100 µM
- TGI [36]: > 100 µM
- TGI [37]: > 100 µM
- TGI [57]: > 100 µM
- TGI [38]: > 100 µM
- TGI [39]: 80.8 µM
- TGI [40]: > 100 µM
- TGI [41]: 45.9 µM
- TGI [43]: 37.1 µM
- TGI [44]: > 100 µM
- TGI [45]: 60.6 µM
- TGI [46]: > 100 µM
- TGI [47]: > 100 µM
- TGI [48]: 59.9 µM
- TGI [49]: 31.9 µM
- TGI [50]: > 100 µM
- TGI [51]: 85.5 µM
- TGI [58]: > 100 µM
- TGI [52]: 70.5 µM
- TGI [53]: 36.6 µM
- TGI [59]: 41.6 µM
- TGI [54]: 59.4 µM

SMILES: Cc1c(C)n(-c2ccccc2)c2nc(S(C)(=O)=O)nc(S(C)(=O)=O)c12
- TGI [1]: 3.55 µM
- TGI [2]: 3.29 µM
- TGI [3]: 30.4 µM
- TGI [55]: 28.9 µM
- TGI [4]: 2.9 µM
- TGI [5]: 3.74 µM
- TGI [6]: 34.2 µM
- TGI [7]: 3.43 µM
- TGI [8]: 25.6 µM
- TGI [9]: 19.4 µM
- TGI [10]: 33.2 µM
- TGI [11]: 6.73 µM
- TGI [12]: 23.3 µM
- TGI [13]: 2.49 µM
- TGI [14]: 3.1 µM
- TGI [15]: 2.29 µM
- TGI [16]: 37.1 µM
- TGI [17]: > 85.5 µM
- TGI [18]: 4.21 µM
- TGI [19]: 4.94 µM
- TGI [20]: 3.2 µM
- TGI [21]: 1.55 µM
- TGI [22]: 3.63 µM
- TGI [23]: 11.7 µM
- TGI [24]: 17.6 µM
- TGI [25]: 2.92 µM
- TGI [26]: 31.1 µM
- TGI [56]: 2.75 µM
- TGI [27]: 28.2 µM
- TGI [28]: 3.23 µM
- TGI [29]: 33.8 µM
- TGI [30]: 2.79 µM
- TGI [31]: 31.1 µM
- TGI [32]: 11.2 µM
- TGI [33]: 3.31 µM
- TGI [35]: 3.16 µM
- TGI [36]: 2.55 µM
- TGI [37]: 3.56 µM
- TGI [57]: 5.52 µM
- TGI [38]: 3.13 µM
- TGI [39]: 3.35 µM
- TGI [40]: 27.7 µM
- TGI [41]: 47.4 µM
- TGI [42]: 2.46 µM
- TGI [43]: 34.5 µM
- TGI [44]: 2.98 µM
- TGI [45]: 2.95 µM
- TGI [46]: 3.02 µM
- TGI [47]: 2.91 µM
- TGI [48]: 59.9 µM
- TGI [49]: 27 µM
- TGI [50]: 4.94 µM
- TGI [51]: 9.24 µM
- TGI [58]: 41.2 µM
- TGI [52]: 3.59 µM
- TGI [53]: 3.43 µM
- TGI [59]: 27.1 µM
- TGI [54]: 10.2 µM
